# Data as given in US20240123079A1 (Seagen Inc., priority 2021, published 2024).
# Read-outs that look alike come from different tables or passages of the source.
# How the values were obtained:
# [1] = system: BxPC3; assay: Cancer cell direct cytotoxicity assay (CellTiter-Glo), BxPC3; type: cell-based; conditions: Homo sapiens, BXPC-3; BxPC3, 96 h, free compound; read-out: Compound X50
# Protocol: (§1) Bystander activity of ADCs was evaluated using Renca cancer cells and THP1-Dual™ cells (InvivoGen) which contain an IRF-Lucia luciferase reporter. Cells were cultured in RPMI-1640 (Gibco) with 10% heat-inactivated fetal bovine serum, Pen-Strep (100 U/ml-100 μg/ml, Gibco), HEPES (10 mM, Gibco), sodium pyruvate (1 mM, Gibco), MEM non-essential amino acids (1×, Gibco), GlutaMAX (1×, Gibco), and beta-mercaptoethanol (55 μM, Gibco). Renca cells were plated in a 96-well flat bottom tissue culture-treated clear polystyrene plate (Corning Costar #3596) at 50,000 cells per well in 100 μL. On the day following the initial plating, 50,000 THP1-Dual™ cells were added to each well with the indicated concentration of ADC in a total volume of 200 μL. Supernatant was harvested at 48 hours post addition of the THP1-Dual™ cells. To measure Lucia reporter signal, 10 μL of supernatant was combined with 40 μL of QUANTI-Luc™ Luminescence assay reagent (Invivogen PN: rep-qlc1) in a 96-well clear flat bottom tissue culture-treated black polystyrene plate (Corning Costar PN: 3603) and read on a Perkin Elmer Envision plate reader. In some experiments, HEK 293T cells engineered to express a murine protein typically expressed by immune cells (target antigen C— an immune cell antigen) were plated as above instead of Renca tumor cells. Cancer Cell Direct Cytotoxicity Assay
# (§2) Cancer cells were counted and plated in 40 μL complete growth media in 384-well, white-walled tissue culture treated plates (Corning). Cell plates were incubated at 37° C. and with 5% CO2 overnight to allow the cells to equilibrate. Stock solutions containing ADCs or free drugs were serially diluted in RPMI-1640+20% fetal bovine serum (FBS). 10 μL of each concentration were then added to each cell plate in duplicate. Cells were then incubated at 37° C. and with 5% CO2 for 96 hours, upon which, the cell plates were removed from the incubator and allowed to cool to room temperature for 30 minutes prior to analysis. […] The luminescence of the samples was measured using an EnVision Multimode plate reader (Perkin Elmer, Waltham, MA). […]
# [2] = system: 786-O; assay: Cancer cell direct cytotoxicity assay (CellTiter-Glo), 786-O; type: cell-based; conditions: Homo sapiens, 786-0, 96 h, free compound, read-out: Compound X50
# Protocol: as §1, §2
# [3] = system: DEL; assay: Cancer cell direct cytotoxicity assay (CellTiter-Glo), DEL; type: cell-based; conditions: Homo sapiens, 96 h, free compound, read-out: Compound X50
# Protocol: as §1, §2
# [4] = system: DELBVR; assay: Cancer cell direct cytotoxicity assay (CellTiter-Glo), DELBVR; type: cell-based; conditions: Homo sapiens, 96 h, free compound, read-out: Compound X50
# Protocol: as §1, §2
# [5] = system: MOLM-13; assay: Cancer cell direct cytotoxicity assay (CellTiter-Glo), MOLM-13; type: cell-based; conditions: Homo sapiens; MOLM-13, 96 h, free compound; read-out: Compound X50
# Protocol: as §1, §2
# [6] = system: L540cy; assay: Cancer cell direct cytotoxicity assay (CellTiter-Glo), L540cy; type: cell-based; conditions: Homo sapiens, 96 h, free compound, read-out: Compound X50
# Protocol: as §1, §2
# [7] = system: Karpas299; assay: Cancer cell direct cytotoxicity assay (CellTiter-Glo), Karpas299; type: cell-based; conditions: Homo sapiens, KARPAS-299; Karpas299, 96 h, free compound; read-out: Compound X50
# Protocol: as §1, §2
# [8] = system: SU-DHL-4; assay: Cancer cell direct cytotoxicity assay (CellTiter-Glo), SU-DHL-4; type: cell-based; conditions: Homo sapiens; SU-DHL-4, 96 h, free compound; read-out: Compound X50
# Protocol: as §1, §2
# [9] = system: Ls174T; assay: Cancer cell direct cytotoxicity assay (CellTiter-Glo), Ls174T; type: cell-based; conditions: Homo sapiens, 96 h, free compound, read-out: Compound X50
# Protocol: as §1, §2
# [10] = system: human cancer cell lines; assay: Cancer cell direct cytotoxicity assay, panel statement; type: cell-based; conditions: panel of human cancer cell lines
# Protocol: as §1
# Cancer cells were counted and plated in 40 μL complete growth media in 384-well, white-walled tissue culture treated plates (Corning). Cell plates were incubated at 37° C. and with 5% CO2 overnight to allow the cells to equilibrate. […] The luminescence of the samples was measured using an EnVision Multimode plate reader (Perkin Elmer, Waltham, MA). […]
# Compound 12a was conjugated to both targeted and non-binding antibodies using a variety of non-cleavable linkers (12, 17, 19-24) and the resulting ADCs were assessed for their ability to activate THP1-Dual™ reporter cells. […] We also evaluated the ability of these linkers to directly kill cancer cells when conjugated to targeted mAbs binding tumor antigen A or antigen B (CD30).
# [11] = system: MDAMB231; assay: Cancer cell direct cytotoxicity assay (CellTiter-Glo), MDAMB231; type: cell-based; conditions: Homo sapiens, MDA-MB-231; MDAMB231, 96 h, free compound; read-out: Compound X50
# Protocol: as §1, §2
# [12] = system: THP1-Dual™ reporter cells; assay: THP1-Dual cell reporter assay (IRF-Lucia luciferase reporter); type: cell-based, human; conditions: 24 h, free compounds, 24 h, Lucia reporter signal, read-out: EC50
# Method in brief: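 THP1-Dual monocytic cells (~100,000/well) were exposed to compound for 24 h (ADCs 48 h). Secreted IRF-driven Lucia luciferase in the supernatant was quantified by QUANTI-Luc luminescence.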
# [13] = system: A2058; assay: Cancer cell direct cytotoxicity assay (CellTiter-Glo), A2058; type: cell-based; conditions: Homo sapiens; A2058, 96 h, free compound; read-out: Compound X50
# Protocol: as §1, §2
smiles,measurement,setting,value
"CCn1nc(C)cc1C(=O)Nc1nc2cc(C(N)=O)cc(OC)c2n1C/C=C/Cn1c(NC(=O)c2cc(C)nn2CC)nc2cc(C(N)=O)cc(OCCCN(C)C(=O)CCN3C(=O)CC(SC[C@H](N)C(=O)O)C3=O)c21 (stereo partly drawn) [Compound 16, S-(1-(3-((3-((5-carbamoyl-1-((E)-4-(5-carbamoyl-2-(1-ethyl-3-methyl-1H-pyrazole-5-carboxamido)-7-methoxy-1H-benzo[d]imidazol-1-yl)but-2-en-1-yl)-2-(1-ethyl-3-methyl-1H-pyrazole-5-carboxamido)-1H-benzo[d]imidazol-7-yl)oxy)propyl)(methyl)amino)-3-oxopropyl)-2,5-dioxopyrrolidin-3-yl)-L-cysteine]",IC50,[1],> 1000 nM
same,IC50,[2],> 1000 nM
same,IC50,[3],4 nM
same,IC50,[4],7 nM
same,IC50,[5],27 nM
same,IC50,[6],29 nM
same,IC50,[7],> 1000 nM
same,IC50,[8],> 1000 nM
same,IC50,[9],> 1000 nM
same,direct cytotoxic activity on cancer cell lines,[10],demonstrated direct cytotoxic activity on a subset of cancer cell lines
same,IC50,[11],> 1000 nM
same,EC50,"[12]; Homo sapiens, THP1-Dual",34 nM
same,EC50,[12],52 nM
same,IC50,[13],> 1000 nM
